In brackets after ≈: the same amount, converted by molar mass.
How the values were obtained:
E6SM [1] = test: Minimal inhibitory concentration (MIC) required to reduce TK(Thymidine kinase)-HSV-1 (B2006) cytopathicity in E6SM cells; type: functional; conditions: Homo sapiens
HEL [2] = test: Minimal inhibitory concentration (MIC) required to reduce CMV (cytomegalo virus) (AD-169) in HEL cells; type: functional, Homo sapiens
MT4 [3] = test: Minimal inhibitory concentration (MIC) required to reduce HIV-2 in MT-4 cells; type: functional; conditions: Homo sapiens
Vero [4] = test: Minimal inhibitory concentration (MIC) required to reduce Sindbis in virus in Vero cells; type: functional; conditions: Chlorocebus sabaeus
E6SM [5] = test: Minimal inhibitory concentration (MIC) required to reduce HSV(herpes simplex virus)-1 (KOS) cytopathicity in E6SM cells; type: functional; conditions: Homo sapiens
MT4 [6] = test: Minimal inhibitory concentration (MIC) required to reduce HIV(human immunodeficiency virus)-1 in MT-4 cells; type: functional
E6SM [7] = test: Minimal inhibitory concentration (MIC) required to reduce HSV(herpes simplex virus)-2 cytopathicity E6SM cells; type: functional; conditions: Homo sapiens
E6SM [8] = test: cells; conditions: Homo sapiens
HEL [9] = test: Minimal inhibitory concentration (MIC) required to reduce VZV (varicella zoster virus) (OKA) in HEL cells; type: functional; conditions: Homo sapiens
E6SM [10] = test: Minimal inhibitory concentration (MIC) required to reduce TK-HSV-1 (VMW 1837) cytopathicity in E6SM cells; type: functional; conditions: Homo sapiens
HeLa [11] = test: Minimal inhibitory concentration (MIC) required to reduce Polio-1 in HeLa cells; type: functional; conditions: Homo sapiens
Vero [12] = test: Minimal inhibitory concentration (MIC) required to reduce Tacaribe virus in Vero cells; type: functional; conditions: Chlorocebus sabaeus
[13] = test system: Respiratory syncytial virus; test: Minimal inhibitory concentration (MIC) required to reduce RSV (long) in HeLa cells; type: functional; conditions: human respiratory syncytial virus
E6SM [14] = test: cells; conditions: Homo sapiens; remark: listed apart in the source
HeLa [15] = test: Minimal inhibitory concentration (MIC) required to reduce coxsackie B4 in HeLa cells; type: functional; conditions: Homo sapiens
MDCK [16] = test: Minimal inhibitory concentration (MIC) required to reduce Influenza B in MDCK cells; type: functional; conditions: Canis lupus familiaris
Vero [17] = test: Minimal inhibitory concentration (MIC) required to reduce Reovirus-1 in Vero cells; type: functional; conditions: Chlorocebus sabaeus
MDCK [18] = test: Minimal inhibitory concentration (MIC) required to reduce Influenza A virus in MDCK cells; type: functional; conditions: Canis lupus familiaris
Vero [19] = test: Minimal inhibitory concentration (MIC) required to reduce forest virus in Vero cells; type: functional; conditions: Chlorocebus sabaeus
HEL [20] = test: Minimal inhibitory concentration (MIC) required to reduce CMV (Davis) in HEL cells; type: functional; conditions: Homo sapiens
HEL [21] = test: Minimal inhibitory concentration (MIC) required to reduce VZV (YS) in HEL cells; type: functional; conditions: Homo sapiens
Vero [22] = test: Minimal inhibitory concentration (MIC) required to reduce Junin virus in Vero cells; type: functional; conditions: Chlorocebus sabaeus
HeLa [23] = test: Minimal inhibitory concentration (MIC) required to reduce VSV in HeLa cells; type: functional; conditions: Homo sapiens
Vero [24] = test: Minimal inhibitory concentration (MIC) required to reduce Parainfluenza-3 virus in Vero cells; type: functional; conditions: Chlorocebus sabaeus
MDCK [25] = test: Minimal inhibitory concentration (MIC) required to reduce Influenza B virus in MDCK cells; type: functional; conditions: Canis lupus familiaris

Row | SMILES | MIC50 (E6SM [1]) | MIC50 (HEL [2]; Homo sapiens, read-out: MIC50) | MIC50 (Vero [4]) | MIC50 (E6SM [5]) | MIC50 (E6SM [7]) | MIC50 (E6SM [8]) | MIC50 (HEL [9]) | MIC50 (E6SM [10]) | MIC50 (HeLa [11]) | MIC50 (Vero [12]) | MIC50 [13] | MIC50 (E6SM [14]) | MIC50 (HeLa [15]) | MIC50 (Vero [17]) | MIC50 (MDCK [18]) | MIC50 (Vero [19]) | MIC50 (HEL [21]) | MIC50 (Vero [22]) | MIC50 (HeLa [23]) | MIC50 (Vero [24]) | also measured
1 | Nc1ncnc2c1ncn2[C@@H]1C[C@@H](O)[C@@H](O)[C@H]1O | 200 µg/mL (≈ 796 µM) | 5 µg/mL (≈ 19.9 µM) | > 200 µg/mL | > 300 µg/mL | 300 µg/mL (≈ 1190 µM) | 0.1 µg/mL (≈ 0.398 µM) | 6 µg/mL (≈ 23.9 µM) | 200 µg/mL (≈ 796 µM) | > 400 µg/mL | 27 µg/mL (≈ 107 µM) | 100 µg/mL (≈ 398 µM) | 0.2 µg/mL (≈ 0.796 µM) | > 400 µg/mL | 0.3 µg/mL (≈ 1.19 µM) | > 200 µg/mL | > 200 µg/mL | 1 µg/mL (≈ 3.98 µM) | 30 µg/mL (≈ 119 µM) | > 0.2 µg/mL | 0.04 µg/mL (≈ 0.159 µM) | MIC50 (MT4 [3]): > 0.8 µg/mL; MIC50 (MT4 [6]): > 0.8 µg/mL; MIC50 (MDCK [16]): > 200 µg/mL; MIC50 (HEL [20]): 3 µg/mL (≈ 11.9 µM)
2 | Nc1ncnc2c1ncn2[C@@H]1C=C(CO)[C@@H](O)[C@H]1O [NEOPLANOCIN A] | 20 µg/mL (≈ 76 µM) | 0.6 µg/mL (≈ 2.28 µM) | 2 µg/mL (≈ 7.6 µM) | 70 µg/mL (≈ 266 µM) | > 100 µg/mL | 0.2 µg/mL (≈ 0.76 µM) | 6 µg/mL (≈ 22.8 µM) | 70 µg/mL (≈ 266 µM) | > 40 µg/mL | 1 µg/mL (≈ 3.8 µM) | > 1 µg/mL | 2 µg/mL (≈ 7.6 µM) | > 40 µg/mL | 0.7 µg/mL (≈ 2.66 µM) | 1 µg/mL (≈ 3.8 µM) | 7 µg/mL (≈ 26.6 µM) | 1 µg/mL (≈ 3.8 µM) | 1 µg/mL (≈ 3.8 µM) | 2 µg/mL (≈ 7.6 µM) | 0.2 µg/mL (≈ 0.76 µM) | MIC50 (HEL [2]): 0.4 µg/mL (≈ 1.52 µM); MIC50 (MDCK [25]): > 3 µg/mL
3 | Nc1nccc2c1ncn2[C@@H]1C[C@H](CO)[C@@H](O)[C@H]1O [3-DEAZAARISTEROMYCIN A] | > 400 µg/mL | > 7 µg/mL | 4 µg/mL (≈ 15.1 µM) | > 400 µg/mL | > 400 µg/mL | 1 µg/mL (≈ 3.78 µM) | > 40 µg/mL | > 400 µg/mL | > 400 µg/mL | 7 µg/mL (≈ 26.5 µM) | 100 µg/mL (≈ 378 µM) | 1 µg/mL (≈ 3.78 µM) | > 400 µg/mL | 2 µg/mL (≈ 7.57 µM) | > 100 µg/mL | > 400 µg/mL | > 40 µg/mL | 7 µg/mL (≈ 26.5 µM) | > 7 µg/mL | > 1 µg/mL | MIC50 (HEL [2]): 7 µg/mL (≈ 26.5 µM); MIC50 (MDCK [25]): > 30 µg/mL
